Consider 1 compound from patent US9290473B2, “Inhibitors of phosphatidylinositol-3-kinase (PI3) and inducers of nitric oxide (NO)” (COUCIL OF SCIENTIFIC & INDUSTRIAL RESEARCH, priority 2009, dated 2016).

Where two headings read alike, the source gives them in different places.

In data set [1] the test system is pancreatic cancer cell line MIA PaCa-2. Description: Cell viability, trypan blue exclusion, MIA PaCa-2. It counts as cell-based, human. Particulars: 72 hours incubation, read-out: Activity (IC50) MIAPaCa-2. From the text: (§1) Following cancer cell lines were used: chronic myeloid leukemia cell lines K562, KU812; acute myeloid leukemia cell lines HL60, U937; T-lymphoblastic leukemia cell line Molt-4; prostate cancer cell line PC-3; breast cancer cell line MCF-7; pancreatic cancer cell line MIA PaCa-2. These cancer cell lines were maintained in tissue culture in standard growth medium containing 10% heat-inactivated fetal bovine serum (FBS). Normal human peripheral blood mononuclear cells (PBMC) were separated from whole blood by Ficoll/Hypaque density gradient centrifugation. Peripheral blood samples were collected from normal donors with due approval from the Human Ethics Committee of Indian Institute of Chemical Biology, Kolkata, India, and all experiments with human blood were conducted under an approved institutional Human Ethics committee protocol. Informed consent was provided according to the Declaration of Helsinki. Cancer cell lines and PBMC (5×10^3) in triplicate were incubated in 0.2 mL of standard growth medium containing 10% FBS with varying concentrations of test compounds of the present invention. After 72 hours of incubation, cells were collected by centrifugation (at 1000 g for 5 minutes) and cell-viability was determined by the trypan blue exclusion assay. At least 200 cells were examined in each sample. Because of monolayer culture, treated and untreated PC-3, MCF-7 and MIA PaCa-2 cells were detached from the wells by treatment with Cell Dissociation Solution (Sigma Chemical, St. Louis, Mo.) before counting. Data are represented as IC50 (minimum concentration required to inhibit the viability by 50%) in Table 5.

The test system of data set [2] is acute myeloid leukemia cell line U937. Put plainly: Cell viability, trypan blue exclusion, U937. It counts as cell-based. Conditions: Homo sapiens, U-937, 72 hours incubation.
From the text: as §1

Data set [3] deals with Normal human peripheral blood mononuclear cells (PBMC). Put plainly: Cell viability, trypan blue exclusion, normal PBMC. It counts as cell-based. Conditions: 72 hours incubation.
From the text: as §1

The next data set concerns MCF-7 xenografts. Description: Human breast adenocarcinoma (MCF-7) xenograft in nude mice. Conditions: 100 mg/kg body weight oral twice a day for 10 days. Format: in vivo. The protocol: MCF-7 cells were suspended to 5×10^7 cells/ml in Matrigel (BD Biosciences; 1 volume of cells with 1 volume of cold Matrigel). Nude female mice of 6 to 7 weeks of age (National Institute of Nutrition, Hyderabad, India) were injected with 0.2 ml of this cell suspension. Animals were left untreated until MCF-7 xenografts reached 200-300 mm^3.
Compound 1 (100 mg/kg body weight) or vehicle control were administered via oral route twice a day for 10 days (5 mice per group).

For a further data set, the system named is normal human PBMC. Put plainly: Apoptosis/necrosis of normal human PBMC by flow cytometry. Particulars: 30 μM, 24 hours. Format: cell-based. As to the method:
FIG. 2C indicates flow cytometric determination of apoptosis and necrosis of normal human PBMC by Compound 1 (30 μM) and Compound 7 (30 μM) after incubation for 24 hours.

As to `C=CCc1ccc(O)c(O)c1` [Compound 1, 4-allyl-benzene-1,2-diol], the IC50 in data set [1] was 35 µM; in data set [1] (Homo sapiens, MIA PaCa-2, 72 h), 30 to 70 µM; in data set [2], 25 µM; in data set [3] it was 80 µM. The “In vivo efficacy in MCF-7 xenografts” value in the data set with MCF-7 xenografts was “further confirmed”. For the same compound, the “Apoptosis and necrosis of normal human PBMC by flow cytometry” value with normal human PBMC is “remained unaffected”.
